From patent US20030083469A1, “Allosteric control of nuclear hormone receptors” (The Salk Institute for Biological Studies, priority 1995, published 2003)

How the values were obtained:
[1] = molecular target: T1, GAL-RXR (Homo sapiens, UniProt P19793); test: Transient transfection analysis of GAL-RXR LBD alone (UASG x4 TK-LUC, CV-1 cells); type: cell-based; settings: 100 nM LG69
T1 construct: human RXRα LBD (Glu 203 - Thr 462); expressed in transfected cells; host or cells: CV-1
T1 sequence (P19793 203-462): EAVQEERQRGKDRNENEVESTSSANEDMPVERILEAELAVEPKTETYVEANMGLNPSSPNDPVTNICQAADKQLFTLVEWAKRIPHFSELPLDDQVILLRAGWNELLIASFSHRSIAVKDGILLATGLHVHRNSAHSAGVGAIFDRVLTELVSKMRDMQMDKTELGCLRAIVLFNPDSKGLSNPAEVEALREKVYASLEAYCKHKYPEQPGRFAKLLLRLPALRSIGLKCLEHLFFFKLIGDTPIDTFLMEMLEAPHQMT
Description: CV-1 cells were grown in Dulbecco's Modified Eagle's medium supplemented with 10% resin-charcoal stripped (Samuels et al., Endocrinology 105:80-85 (1979)) fetal bovine serum, 50 U/ml penicillin G and 50 μg/ml streptomycin sulfate (DMEM-FBS) at 37° C. in 5% CO2. One day prior to transfection, cells were plated to 50-80% confluence using phenol-red free DMEM-FBS. Cells were transfected by lipofection using N-{2-(2,3)-dioleoyloxy)propyl-N,N,N-trimethyl ammonium methyl sulfate} according to the manufacturer's instructions (DOTAP, Boehringer Mannheim). […]. All points were performed in triplicate in each experiment and varied by less than 10%. Each experiment was repeated three or more times with similar results.
Thus, a chimeric protein was constructed containing the yeast GAL4 DBD linked to the RXR LBD (GAL-RXR). The ability of this RXR-chimera to respond to LG69 was initially examined in the presence of truncated receptors containing the LBDs of T3R or RAR. Thus, transient transfection analysis of GAL-RXR LBD was carried out in the presence of T3R, RAR or VDR LBDs. Reporter constructs contained 4 copies of the UASG cloned upstream of the TK-LUC reporter. […] Normalized luciferase activity was determined and plotted as reporter activity (see FIG. 3).
[…]. Normalized luciferase activity was determined and plotted as fold-activation relative to untreated cells.

[2] = molecular target: T2, Nurrl (Mus musculus, UniProt Q06219); test: Transient transfection of full-length Nurrl on NBRE x3 TK-LUC; type: cell-based; settings: Nurrl alone; 100 nM LG69
T2 construct: an expression vector for full-length mouse Nurrl; expressed in transfected cells; host or cells: CV-1
Description: (§1) CV-1 cells were grown in Dulbecco's Modified Eagle's medium supplemented with 10% resin-charcoal stripped (Samuels et al., Endocrinology 105:80-85 (1979)) fetal bovine serum, 50 U/ml penicillin G and 50 μg/ml streptomycin sulfate (DMEM-FBS) at 37° C. in 5% CO2. One day prior to transfection, cells were plated to 50-80% confluence using phenol-red free DMEM-FBS. Cells were transfected by lipofection using N-{2-(2,3)-dioleoyloxy)propyl-N,N,N-trimethyl ammonium methyl sulfate} according to the manufacturer's instructions (DOTAP, Boehringer Mannheim). […] Cells were harvested and assayed for luciferase and β-galactosidase activity. All points were performed in triplicate in each experiment and varied by less than 10%. Each experiment was repeated three or more times with similar results.
Thus, CV-1 cells were tranfected with NBRE×3 TK-LUC (300 ng/10^5 cells) , CMX-βgal (500 ng/10^5 cells), alone or with CMX-Nurrl (100 ng/10^5 cells) and CMX-hRXRα (100 ng/10^5 cells) as indicated in FIG. 7B. Following transfection, cells were treated with or without 100 nM LG69. Normalized luciferase activity was determined and plotted as reporter activity.

[3] = molecular target: T3, Nurrl+RXR LBD (Homo sapiens, UniProt P19793); test: Transient transfection of Nurrl with RXR LBD on NBRE x3 reporter; type: cell-based, mouse Nurrl, human RXRα; settings: NBRE×3; 100 nM LG69
T3 construct: or the human RXRα LBD (Glu 203 -Thr 462); expressed in transfected cells; host or cells: CV-1
Description: as §1
This prompted an investigation of the question of whether the RXR DBD is required for activation through the Nurrl pathway. Thus, CV-1 cells were transfected with TK-LUC reporters (300 ng/10^5 cells), CMX-βgal (500 ng/10^5 cells) and the indicated CMX-receptor construct (20 ng/10^5 cells; see FIG. 7D) with or without CMX-RXR-LBD (100 ng/10^5 cells) . […] Normalized luciferase activity was determined and plotted as percent of maximal fold-activation where 100% is defined as the fold activation by T3R, RAR, VDR, the RXR LBD, or Nurrl+RXR LBD. […]

T2 sequence (Q06219 whole entry): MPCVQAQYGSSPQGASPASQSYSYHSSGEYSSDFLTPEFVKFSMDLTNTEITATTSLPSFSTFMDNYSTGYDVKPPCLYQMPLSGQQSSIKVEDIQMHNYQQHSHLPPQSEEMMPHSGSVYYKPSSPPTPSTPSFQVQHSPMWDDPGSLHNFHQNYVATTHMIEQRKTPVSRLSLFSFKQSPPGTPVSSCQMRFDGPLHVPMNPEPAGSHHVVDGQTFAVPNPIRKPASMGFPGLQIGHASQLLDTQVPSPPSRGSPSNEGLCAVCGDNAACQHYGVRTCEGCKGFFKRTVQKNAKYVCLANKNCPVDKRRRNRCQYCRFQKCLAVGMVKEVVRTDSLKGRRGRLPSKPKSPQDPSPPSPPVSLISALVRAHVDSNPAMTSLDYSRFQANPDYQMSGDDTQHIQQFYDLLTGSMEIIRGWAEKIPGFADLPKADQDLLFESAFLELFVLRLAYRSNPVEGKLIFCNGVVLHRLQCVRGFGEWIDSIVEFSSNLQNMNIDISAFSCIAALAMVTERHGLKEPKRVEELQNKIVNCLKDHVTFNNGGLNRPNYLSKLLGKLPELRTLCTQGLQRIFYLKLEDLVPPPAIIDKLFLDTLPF
T3 sequence (Q06219 whole entry partner, one chain of several, the tested form may be a part): as the sequence (Q06219 whole entry) above

In the case of CC=C(c1ccc(C(=O)O)cc1)c1cc2c(cc1C)C(C)(C)CCC2(C)C [LG69, 4-{1-(3,5,5,8,8-pentamethyl-5,6,7,8-tetrahydro-2-napthalenyl)-1-propenyl}benzoic acid], the “activation of the UASG reporter by GAL-RXR in response to ligand” value [1] is reported as “activated”, the “fold response to LG69” value ([1]; GAL-RXR alone) is reported as 69 fold and the “responsiveness of Nurrl on the NBRE reporter” value [2] is reported as “not responsive”. For the same compound, the “LG69 responsiveness conferred upon Nurrl by the RXR LBD” value [3] was “strong”.
